Experimental data published in ChEMBL document CHEMBL2062491, “Absolute structures of monoterpenoids with a δ-lactone-containing skeleton from Ligularia hodgsonii” (J Nat Prod, 2012).

Tests used:
Format in all cases: functional, cell-based
HL-60 = experiment: Cytotoxicity against human HL60 cells after 48 hrs by SRB assay
HeLa = experiment: Cytotoxicity against human HeLa cells after 48 hrs by SRB assay
SMMC-7721 = experiment: Cytotoxicity against human SMMC7721 cells after 48 hrs by SRB assay

SMILES	IC50 (HL-60; hl-60)	IC50 (HeLa; hela)	IC50 (SMMC-7721; smmc-7721)	IC50 (HL-60; Homo sapiens, HL-60, 48 h, read-out: IC50)	IC50 (HeLa; Homo sapiens, HeLa, 48 h, read-out: IC50)	IC50 (SMMC-7721; Homo sapiens, SMMC-7721, 48 h, read-out: IC50)
COC(=O)[C@]1([C@H](C)Cl)C[C@@H](C)[C@@](C)(OC(C)=O)C(=O)O1 [LIGUHODGCINS A]	141 µM	171 µM	156 µM			
COC(=O)[C@]1(C)OC(=O)[C@]2(C[C@H]1C)O[C@@H]2C [LIGUHODGCINS B]	151 µM	168 µM	162 µM			
CO[C@@]12[C@H](COC(N)=O)C3=C(C(=O)C(C)=C(N)C3=O)N1C[C@@H]1N[C@@H]12 [MITOMYCIN]				1.8 µM	3.4 µM	5.6 µM
